In assay [1] the target is T1, Histone deacetylase 8 (Homo sapiens, UniProt Q9BY41).
T1 sequence (Q9BY41 whole entry): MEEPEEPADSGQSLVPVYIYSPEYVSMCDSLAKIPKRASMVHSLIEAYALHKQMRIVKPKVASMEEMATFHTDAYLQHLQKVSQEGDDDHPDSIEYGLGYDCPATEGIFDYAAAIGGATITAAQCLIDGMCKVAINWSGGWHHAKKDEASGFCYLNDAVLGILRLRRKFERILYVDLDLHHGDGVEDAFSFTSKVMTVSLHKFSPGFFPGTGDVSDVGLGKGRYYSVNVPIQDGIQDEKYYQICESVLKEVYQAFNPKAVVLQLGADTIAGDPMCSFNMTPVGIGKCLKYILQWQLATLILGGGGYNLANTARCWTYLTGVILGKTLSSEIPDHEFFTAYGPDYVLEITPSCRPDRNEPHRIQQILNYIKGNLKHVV
In words: Inhibition of recombinant human HDAC8 expressed in Escherichia coli assessed as hydrolase activity using fluorogenic AC-LGK-tfa-AMC as substrate measured after 60 mins by fluorescence analysis.

Assay [2] concerns the target T2, Protein deacetylase HDAC6 (Homo sapiens, UniProt Q9UBN7).
T2 sequence (Q9UBN7 whole entry): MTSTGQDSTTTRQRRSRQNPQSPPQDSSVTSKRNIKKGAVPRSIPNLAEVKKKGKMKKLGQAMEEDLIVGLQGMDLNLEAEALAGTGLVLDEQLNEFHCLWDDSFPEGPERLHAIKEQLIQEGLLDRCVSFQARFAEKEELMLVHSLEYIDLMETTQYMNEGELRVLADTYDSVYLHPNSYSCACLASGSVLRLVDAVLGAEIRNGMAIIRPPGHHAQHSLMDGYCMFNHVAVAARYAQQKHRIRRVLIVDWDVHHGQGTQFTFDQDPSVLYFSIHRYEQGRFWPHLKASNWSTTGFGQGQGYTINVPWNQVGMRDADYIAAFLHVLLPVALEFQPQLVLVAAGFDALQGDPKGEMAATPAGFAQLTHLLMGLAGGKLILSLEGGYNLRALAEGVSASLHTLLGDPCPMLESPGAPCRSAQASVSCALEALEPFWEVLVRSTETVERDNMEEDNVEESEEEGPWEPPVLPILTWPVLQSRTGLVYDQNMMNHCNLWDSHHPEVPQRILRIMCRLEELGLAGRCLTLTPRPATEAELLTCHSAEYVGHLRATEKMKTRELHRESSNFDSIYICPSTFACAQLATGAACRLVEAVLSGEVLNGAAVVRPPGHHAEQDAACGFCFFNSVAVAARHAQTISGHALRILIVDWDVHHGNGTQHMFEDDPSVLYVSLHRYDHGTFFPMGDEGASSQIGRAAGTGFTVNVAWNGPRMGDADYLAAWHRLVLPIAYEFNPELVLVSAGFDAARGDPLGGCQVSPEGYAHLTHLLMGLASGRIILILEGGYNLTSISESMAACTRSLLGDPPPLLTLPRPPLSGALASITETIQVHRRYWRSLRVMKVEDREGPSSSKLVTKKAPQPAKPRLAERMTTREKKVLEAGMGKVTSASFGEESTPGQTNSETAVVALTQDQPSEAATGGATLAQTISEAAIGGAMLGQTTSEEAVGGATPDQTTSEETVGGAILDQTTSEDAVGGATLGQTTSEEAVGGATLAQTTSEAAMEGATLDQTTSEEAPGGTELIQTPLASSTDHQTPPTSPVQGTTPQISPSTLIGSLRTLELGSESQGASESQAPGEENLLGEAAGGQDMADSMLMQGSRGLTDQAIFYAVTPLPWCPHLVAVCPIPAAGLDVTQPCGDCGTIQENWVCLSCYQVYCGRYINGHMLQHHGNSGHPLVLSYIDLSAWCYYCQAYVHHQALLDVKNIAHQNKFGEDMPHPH
Description: Inhibition of His-tagged recombinant human HDAC6 expressed in insect cells assessed as hydrolase activity using fluorogenic AC-LGK-ac-AMC as substrate measured after 60 mins by fluorescence analysis.

In the next assay the target is Histone deacetylase 4 (Homo sapiens, UniProt P56524). Description: Inhibition of N-terminal GST-tagged recombinant human HDAC4 assessed as hydrolase activity using fluorogenic […] as substrate measured after 60 mins by fluorescence analysis.
Sequence of Histone deacetylase 4 (P56524 whole entry): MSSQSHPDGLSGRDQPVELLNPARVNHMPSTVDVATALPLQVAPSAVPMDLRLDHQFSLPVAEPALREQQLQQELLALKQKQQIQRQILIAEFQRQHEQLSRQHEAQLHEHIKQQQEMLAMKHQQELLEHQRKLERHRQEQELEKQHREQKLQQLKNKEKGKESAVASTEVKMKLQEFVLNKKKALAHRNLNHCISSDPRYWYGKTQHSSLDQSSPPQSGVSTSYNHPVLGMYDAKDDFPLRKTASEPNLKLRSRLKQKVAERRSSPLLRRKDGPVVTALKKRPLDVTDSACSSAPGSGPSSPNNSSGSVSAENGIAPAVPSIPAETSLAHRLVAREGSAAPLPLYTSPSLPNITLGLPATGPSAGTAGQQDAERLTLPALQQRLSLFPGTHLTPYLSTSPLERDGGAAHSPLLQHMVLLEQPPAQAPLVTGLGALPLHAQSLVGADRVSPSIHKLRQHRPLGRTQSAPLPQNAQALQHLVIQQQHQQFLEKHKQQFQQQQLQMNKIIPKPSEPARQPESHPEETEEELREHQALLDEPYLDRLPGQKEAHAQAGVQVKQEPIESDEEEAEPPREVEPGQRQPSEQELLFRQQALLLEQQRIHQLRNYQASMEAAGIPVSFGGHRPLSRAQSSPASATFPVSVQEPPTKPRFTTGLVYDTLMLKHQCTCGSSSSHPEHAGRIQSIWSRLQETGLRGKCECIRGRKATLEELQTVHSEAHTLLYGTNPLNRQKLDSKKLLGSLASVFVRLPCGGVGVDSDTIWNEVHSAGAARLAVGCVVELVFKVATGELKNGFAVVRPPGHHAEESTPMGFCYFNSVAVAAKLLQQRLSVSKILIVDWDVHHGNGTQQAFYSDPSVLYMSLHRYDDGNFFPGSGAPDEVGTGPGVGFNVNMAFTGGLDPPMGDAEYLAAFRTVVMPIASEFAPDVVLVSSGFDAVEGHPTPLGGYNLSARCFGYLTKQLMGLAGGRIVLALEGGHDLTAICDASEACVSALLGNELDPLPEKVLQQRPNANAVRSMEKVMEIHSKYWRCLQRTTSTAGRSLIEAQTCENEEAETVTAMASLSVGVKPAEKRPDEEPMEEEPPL
The target of assay [3] is T1, Histone deacetylase 8. In words: Inhibition of recombinant human HDAC8 expressed in Escherichia coli assessed as inhibition constant ki,1 using fluorogenic AC-LGK-tfa-AMC as substrate measured after 60 mins by fluorescence analysis.

Usually Ki stands for the dissociation constant of the complex between target and ligand, obtained from inhibition or displacement. As for `O=C(CCCCCCC(=O)C(F)(F)F)Nc1ccccc1`, the Ki amounted to 33 nM on Histone deacetylase 8 [1], 4500 nM in assay [2], 5.1 nM on Histone deacetylase 4 and 7300 nM at Histone deacetylase 8 [3].

These data come from ChEMBL document CHEMBL3797051 (Medchemcomm, 2016).
